Measurements reported in ChEMBL document CHEMBL1133985, “Synthesis of diaminobutane derivatives as potent Ca(2+)-permeable AMPA receptor antagonists” (Bioorg Med Chem Lett, 2001).

Assays:
[1] = target: Glutamate receptor ionotropic, AMPA (Rattus norvegicus) (UniProt P19491+P19492+P19493+P19490); assay: Antagonistic activity against Ca++permeable Ionotropic glutamate receptor AMPA as concentration of compound that reduces the inward current induced by kainate by 50% in Xenopus oocytes; format: functional, cell-based; conditions: Oocyte; concentration not given here
[2] = species: Rattus norvegicus; conditions: dose 3 mg/kg; route intravenous
Description: Change in systolic blood pressure before and after intravenous administration of 3 mg/kg dose in rats

[3] = target: Glutamate receptor ionotropic, AMPA (Rattus norvegicus, UniProt P19490+P19491+P19492+P19493)
[4] = Inhibitory activity against [Ca(2+)]-impermeable Ionotropic glutamate receptor AMPA was determined; conditions: concentration not given here

SMILES | inhibition [1] [%] | IC50 [3] [µM] | Delta SBP [2] [mmHg] | inhibition [4] [%]
O=C(Cc1cccc2ccccc12)N1CCC(CNCCCCNCC2CCOCC2)CC1 | 35 | – | -22 | –
O=C(Cc1cccc2ccccc12)N1CCC(CNCCCCNCCN2CCCCC2)CC1 | – | – | 5 | –
O=C(Cc1cccc2ccccc12)N1CCC(CNCCCCN2CCCCC2)CC1 | – | 0.39 | 4 | –
CN(C)CCCCNCC1CCN(C(=O)Cc2cccc3ccccc23)CC1 | – | 0.53 | 12 | –
CCCNCCCCNCC1CCN(C(=O)Cc2cccc3ccccc23)CC1 | – | 0.74 | 9 | –
O=C(Cc1cccc2ccccc12)N1CCC(CNCCCCNCC2CCCCC2)CC1 | – | 0.25 | 11 | 4.4

Continued, in another order:

inhibition [1] [%] | IC50 [3] [µM] | SMILES | Delta SBP [2] [mmHg] | inhibition [4] [%]
1 | – | O=C(Cc1cccc2ccccc12)N1CCC(CNCCCCCCC2CCCCC2)CC1 | -50 | –
42 | – | O=C(Cc1cccc2ccccc12)N1CCC(CCCCCCNCC2CCCCC2)CC1 | -35 | –
– | 0.79 | CC(C)CNCCCCNCC1CCN(C(=O)Cc2cccc3ccccc23)CC1 | 7 | –
– | 0.73 | CC(C)NCCCCNCC1CCN(C(=O)Cc2cccc3ccccc23)CC1 | 10 | –
54 | – | NCCCCNCC1CCN(C(=O)Cc2cccc3ccccc23)CC1 | -53 | –
44 | – | O=C(Cc1cccc2ccccc12)N1CCC(CNCCCCNCCCO)CC1 | -6 | –
